According to patent US20190134039A1, “ANTIVIRAL JAK INHIBITORS USEFUL IN TREATING OR PREVENTING RETROVIRAL AND OTHER VIRAL INFECTIONS” (EMORY UNIVERSITY, priority 2011, published 2019):
Entries after “also recorded” stand apart in the source; their conditions may differ. Where two headings read alike, the source gives them in different places.

Columns and labels:
HIV-1 containing K65R = assay: microbe, parasite or virus in culture; assay type: cell-based; conditions: Human immunodeficiency virus 1, Lymphocyte
[1] = system: HIV-1 containing 4xAZT (D67N/K70R/T215Y/K219Q); assay: microbe, parasite or virus in culture; assay type: cell-based; conditions: Human immunodeficiency virus 1, Lymphocyte
HIV-1 containing M184V = assay: microbe, parasite or virus in culture; assay type: cell-based; conditions: Human immunodeficiency virus 1, Lymphocyte
PHA + IL-2 PBM cells = assay: cells; conditions: Homo sapiens, PBMC, read-out: IC50 in PHA + IL-2 PBM cells *MTT Assay
HIV-1 containing L74V = assay: microbe, parasite or virus in culture; assay type: cell-based; conditions: Human immunodeficiency virus 1, Lymphocyte
HIV-1LAI = assay: microbe, parasite or virus in culture; conditions: for EC90: read-out: Anti-HIV-1 EC90 in acutely infected PBM cells
Excerpt: PBM cells were isolated as follows: Lymphocytes were isolated from buffy coats derived from healthy donors obtained from Life South Laboratories (Dunwoody, Ga.). Activated lymphocytes were maintained for 72 hrs in medium that was supplemented with […] phytohemagglutinin (PHA) (Cape Cod associates, East Falmouth, Mass.). Media was comprised of RPMI media supplemented with 20% fetal calf serum, 1% penicillin/streptomyocin and 2% L-glutamine (Sigma Aldrich, San Jose, Calif.).
PBM cell infections: Testing was performed in duplicate with at least 3 independent assays. Cells were incubated in RPMI medium (HyClone, Logan, Utah) containing HR-IL2 (26.5 units/ml) and 20% fetal calf serum. Infections were performed by adding HIV-1LA1 followed by a further incubation at 37° C., 5% CO2, 1 hr prior to addition of drugs. Assays were performed in 24 well plates (BD Biosciences, Franklin Lakes, N.J.). One ml of supernatant was collected after 5 days in culture and then centrifuged at 12,000 rpm for 2 hr at 4° C. in a Jouan Br43i (Thermo Electron Corp., Marietta, Ohio). The product of the RT assay was quantified using a Packard harvester and direct beta counter and the data were analyzed as previously described (Schinazi et al, 1990).

HIV-1BaL = assay: microbe, parasite or virus in culture; conditions: for EC90: read-out: Anti-HIV-1 EC90 in acutely infected MΦ
Experimental: Macrophages were isolated as follows: Monocytes were isolated from buffy coats of HIV-1 negative, HBV/HCV-negative donors with density gradient centrifugation coupled with enrichment for CD14+ monocytes with Rosette Sep antibody cocktail (Stem Cell Technologies, Vancouver, British Columbia). Cells were seeded at a concentration of 1.0×10^6 cells/well for 1 hr at 37° C. and 5% CO2 to confer plastic adherence prior to repeated washes with 1×PBS. Macrophages were maintained in medium containing 100 U/ml macrophage colony-stimulating factor (m-CSF, R&D Systems, Minneapolis, Minn.), supplemented with 20% fetal calf serum (Atlanta Biologicals, Lawrenceville, Ga.) and 1% penicillin/streptomyocin (Invitrogen, Carlsbad, Calif.) for 7 days (37° C., 5% CO2) prior to testing.
Macrophage infections: Macrophages were cultured as described above for 7 days. […] 4 hrs after infection, virus was removed and drug-containing medium was returned to the cultures. Supernatants were collected on day 7 post-infection and HIV-1 p24 was quantified via ELISA (Zeptometrix Corporation, Buffalo, N.Y.). EC50 analysis was performed using CalcuSyn software (BioSoft Corporation, Cambridge, UK).

[2] = system: acute infection in rhesus macaque lymphocytes; assay: cells; conditions: Macaca mulatta, Lymphocyte; for EC90: read-out: Acute infection in rhesus macaque lymphocytes EC90
Excerpt: (§1) The data (Shown in Table 5 below) are mean and standard deviations from at least three independent experiments.

[3] = system: acute infection in rhesus macaque macrophages; assay: cells; conditions: for EC90: read-out: Acute infection in rhesus macaque macrophages EC90
Excerpt: as §1

HIV-2 = assay: microbe, parasite or virus in culture; conditions: Human immunodeficiency virus 2, PBMC; for EC90: read-out: Anti-HIV-2 EC90 in acutely infected PBM cells
wild-type HIV-1xxLAI = assay: Antiviral potency in primary human lymphocytes, wild type; assay type: cell-based; conditions: Human immunodeficiency virus 1, Lymphocyte; xxLAI; primary human lymphocytes; read-out: EC90
[4] = system: HIV-1 containing A62V/V75I/F77L/F116Y/Q151M; assay: microbe, parasite or virus in culture; assay type: cell-based; conditions: Human immunodeficiency virus 1, Lymphocyte
Mφ = assay: cells; conditions: Homo sapiens, read-out: IC50 in Mφ *MTT Assay
PHA stimulated PBM cells = assay: cells; conditions: Homo sapiens, PBMC, read-out: IC50 in PHA stimulated PBM cells *MTT Assay
PBM cells = assay: cells; conditions: Homo sapiens, PBMC, read-out: IC50 in PBM cells *Propidium Iodide assay
[5] = system: PHA+IL-2 stimulated primary human lymphocytes; assay: Proliferation and viability of PHA+IL-2 stimulated primary human lymphocytes; assay type: cell-based; conditions: PHA+IL-2 stimulated lymphocytes, 5 days
Experimental: (§2) The effect of various Jak inhibitors on proliferation and viability of PHA or PHA+IL-2 stimulated primary human lymphocytes was evaluated using the techniques described above.
(§3) For all experiments, cells were incubated with media alone or drug-containing medium for 5 days prior to assessment of cell count and viability. Data are mean and standard deviations for at least three independent experiments conducted with at least 4 pooled donors, and duplicates within each experiment.

integrated viral DNA = assay: Integrated viral DNA in CD4 T cells from viremic donors (Alu PCR); assay type: cell-based; conditions: CD4 T cells from HIV-infected individuals; alone and in the presence of HAART
Experimental: (§4) FIGS. 11 A-E are graphicals showing that Jak inhibitors reduce frequency of cells harboring integrated viral DNA and IL-15-induced reactivation of latent HIV-1 in CD4 T cells. CD4 T cells were isolated from viremic donors and incubated with CD3/CD28 plus 0.01, 0.1, 1.0 or 10 μM of Jak inhibitors with or without EC99 of ART (180 nM zidovudine, 100 nM efavirenz, 200 nM Raltegravir) (A and B). After six days, integrated viral DNA was quantified using ultra sensitive Alu PCR versus DMSO controls (n=5). 0.01 μM represents the average of all assays completed using % DMSO equivalent to Jak inhibitor concentrations. Error bars represent S.E.M. and statistical significance determined by two-way ANOVA followed by Sidak's multiple comparison post-test: *p<0.05, **p<0.01, ***p<0.001 and ****p<0.0001 for A and B. In panel C-E, memory CD4^+ T cells were isolated from ART treated aviremic donors (n=3), activated with 10 ng/ml IL-15 (panel D) or CD3/CD28 (panel E) and maintained with or without 1 μM ruxolitinib in the presence of ART. Six days post reactivation, extracellular viral RNA copies were quantified by qRT-PCR (*p<0.01, one-way ANOVA).

pSTAT5 = conditions: primary CD4+T lymphocytes
pSTAT3 [6] = conditions: primary CD4+T lymphocytes
latent HIV-1 [7] = assay: Reactivation of latent HIV-1 in memory CD4+ T cells from ART treated aviremic donors; assay type: cell-based; conditions: CD4 T cells from HIV-infected individuals; alone and in the presence of HAART
Experimental: as §4

activated PBM cells = assay type: cell-based, human
Excerpt: The data is shown in FIG. 2, in terms of total cell number (10^6 cells) versus aM drug in medium.
The data is shown in FIG. 3, in terms of cell viability (%) versus aM drug in medium.

pSTAT3 [8] = assay: cells; conditions: read-out: EC90 pSTAT3
[9] = system: PHA stimulated primary human lymphocytes; assay: Proliferation and viability of PHA stimulated primary human lymphocytes; assay type: cell-based; conditions: 5 days, all concentrations
Experimental: as §2, §3

latent HIV-1 [10] = assay: Reactivation of latent HIV-1 in primary human macrophages (PMA, p24 ELISA); assay type: cell-based; conditions: drug applied during reactivation, removed thereafter, within 72 hr post reactivation
[11] = system: various NRTI-resistant HIV-1; assay: Antiviral potency against various NRTI-resistant HIV-1 in primary human lymphocytes (summary over strains); assay type: cell-based; conditions: K65R, M184V, L74V, A62V/V75I/F77L/F116Y/Q151M, 4xAZT
Excerpt: FI50 is the ratio of EC50 against mutant virus:EC50 against wild-type xxLAI. FI90 is the ratio of EC90 against mutant virus:EC90 against wild-type xxLAI.

pSTAT1 = conditions: primary CD4+T lymphocytes
[12] = Human immunodeficiency virus 1, PBMC, in Homo sapiens
[13] = Human immunodeficiency virus 1, Macrophage, in Homo sapiens

With `Cc1cn([C@H]2C[C@H](N=[N+]=[N-])[C@@H](CO)O2)c(=O)[nH]c1=O` [AZT, 3′-azido-3′-deoxythymidine] the EC50 (HIV-1 containing K65R) was 40 ± 20 nM, the EC90 (HIV-1 containing K65R) was 0.3 ± 0.1 µM and the EC50 [1] was 100 ± 100 nM. For the same compound, the EC90 [1] was 53.3 ± 66.1 µM, the EC50 (HIV-1 containing M184V) was 10 ± 20 nM and the EC90 (HIV-1 containing M184V) was 0.02 ± 0.01 µM. The CC50 (PHA + IL-2 PBM cells) was > 100 µM, the EC50 (HIV-1 containing L74V) was 20 ± 20 nM and the EC90 (HIV-1 containing L74V) was 0.2 ± 0.1 µM. It also gave an EC50 (HIV-1LAI; Human immunodeficiency virus 1, PBMC, in Homo sapiens, read-out: Anti-HIV-1 EC50 in acutely infected PBM cells) of 20 ± 8 nM, an EC90 (HIV-1LAI; [12]) of 0.13 ± 0.03 µM and an EC50 (HIV-1BaL; Human immunodeficiency virus 1, Macrophage, in Homo sapiens, read-out: Anti-HIV-1 EC50 in acutely infected MΦ) of 10 ± 20 nM. It also gave an EC90 (HIV-1BaL; [13]) of 70 ± 120 nM, an EC50 ([2]; read-out: Acute infection in rhesus macaque lymphocytes EC50) of 2 ± 1 nM and an EC90 [2] of 30 ± 20 nM. It also gave an EC50 ([3]; Macaca mulatta, Macrophage, read-out: Acute infection in rhesus macaque macrophages EC50) of 80 ± 100 nM, an EC90 ([3]; Macaca mulatta, Macrophage) of 0.9 ± 0.7 µM and an EC50 (HIV-2; read-out: Anti-HIV-2 EC50 in acutely infected PBM cells) of 1 ± 0.8 nM. For the same compound, the EC90 (HIV-2) was 10 ± 10 nM, the EC90 (wild-type HIV-1xxLAI) was 0.1 ± 0.08 µM and the EC50 [4] was 4.6 ± 7.7 µM. The EC90 [4] was 41.2 ± 50.2 µM, the IC50 (Mφ) was > 100 µM and the IC50 (PHA stimulated PBM cells) was > 100 µM. The IC50 (PBM cells) was > 50 µM.

With `C[C@@H]1CCN(C(=O)CC#N)C[C@@H]1N(C)c1ncnc2[nH]ccc12` [Tofacitinib, 3-{(3R,4R)-4 methyl-3-[methyl-(7H-pyrrolo[2,3-d]pyrimidin-4-yl)-amino]-piperidin-1-yl}-3-oxo-propionitrile] the “proliferation versus cells exposed to media alone” value ([5]; 1.0 μM) was “significantly inhibited”, the “viability versus cells exposed to media alone” value ([5]; all concentrations) was “not significantly different” and the EC90 (HIV-1 containing K65R) was 81.2 ± 26.7 µM. For the same compound, the “size of the HIV reservoir” value (integrated viral DNA) was “decay the size of the HIV reservoir”, the EC90 [1] was 17.1 ± 4.5 µM and the “concentrations inhibiting IFN-α induced phosphorylation of STAT5” value (pSTAT5) was “sub-micromolar”. The “concentrations inhibiting IFN-α induced phosphorylation of STAT3” value (pSTAT3 [6]) was “sub-micromolar”, the reservoir reactivation (latent HIV-1 [7]) was “block reservoir reactivation” and the EC90 (HIV-1 containing M184V) was 27.1 ± 15.7 µM. For the same compound, the “total cell proliferation (total cell number)” value (activated PBM cells) was “do not affect total cell proliferation”, the total cell viability (activated PBM cells) was “do not affect total cell viability” and the EC90 (HIV-1 containing L74V) was 47.7 ± 45.3 µM. For the same compound, the EC90 (HIV-1LAI; [12]) was 17.1 ± 15.1 µM, the “inhibition of HIV-1 replication” value (HIV-1LAI; PBM cells) was “sub-micromolar” and the EC90 (pSTAT3 [8]) was 900 nM. For the same compound, the “proliferation versus cells exposed to media alone” value [9] was “not significantly different”, the “viability versus cells exposed to media alone” value [9] was “not significantly different” and the EC90 (HIV-1BaL; [13]) was 2900 ± 1400 nM. For the same compound, the “inhibition of HIV-1 replication” value (HIV-1BaL; MØ cells) was “sub-micromolar”, the “percent inhibition of reactivation of latent HIV-1 versus no drug control” value (latent HIV-1 [10]) was ~40% and the EC90 [2] was 2900 ± 500 nM. For the same compound, the EC90 ([3]; Macaca mulatta, Macrophage) was ~4 µM, the EC90 [3] was 3.1 ± 0.9 µM and the EC90 (HIV-2) was 1800 ± 1100 nM. The EC90 (wild-type HIV-1xxLAI) was 28.4 ± 16.7 µM, the EC90 [4] was 8.9 ± 8.8 µM and the “FI50 or FI90 versus wild type HIV-1xxLAI” value [11] was “not significant increase; also recorded: did not display a significant difference”. The “antiviral potency for wild-type HIV-1xxLAI versus NRTI-resistant HIV-1” value [11] was “not significantly different” and the “concentrations inhibiting IFN-α induced phosphorylation of STAT1” value (pSTAT1) was “sub-micromolar”.
